From ChEMBL document CHEMBL3271946, “Synthesis and adrenoreceptor blocking action of aziridinium ions derived from phenoxybenzamine and dibenamine” (J Med Chem, 1976) come the findings set out here.

The source made the active and inactive calls. No cut-off for these calls is given here.

A short description of data set [1]: Half life in 0.025 M NaHCo3 solution assessed as compound cyclization at 5x10'-4 M. Type of data set: physicochemical.
The target in data set [2] is T1, Adrenergic receptor alpha (Rattus norvegicus) (UniProt P15823+P23944+P43140+P22086+P19328+P22909). Briefly: Antagonist activity at alpha-adrenergic receptor in blockade of norepinephrine-induced response in rat vas deferens after 3 mins. It counts as tissue-based.
Data set [3] addresses T1, Adrenergic receptor alpha (Rattus norvegicus). Briefly: Antagonist activity at alpha-adrenergic receptor in blockade of norepinephrine-induced response in rat vas deferens after 3 mins measured after compound washout. Type of data set: tissue-based.
Data set [4] in a line: Half life in 80% aqueous Me2CO solution assessed as compound cyclization at 5x10'-4 M. It counts as physicochemical. As to conditions: 80% aqueous acetone (Me2CO) solution.
The subject of another data set is Vas deferens. Briefly: Blockade of serotonin-induced response in rat vas deferens after 3 mins. It counts as functional, tissue-based.
Data set [5] can be described thus: Half life in krebs solution assessed as hydrolysis at 0.003 M at 37 degC. Type of data set: physicochemical.

A word on the half-life: it is the time in which the quantity being followed falls by half. For `CC(COc1ccccc1)N(CCCl)Cc1ccccc1.Cl` (stereo not drawn) [PHENOXYBENZAMINE HYDROCHLORIDE], the half-life at 500 µM worked out at 2.3 min in data set [1] and 0.61 min in data set [4]. The inhibition entry (in data set [2]; in data set [3]; in the data set on Vas deferens) was “Active” each time.

Regarding `Cl.ClCCN(Cc1ccccc1)Cc1ccccc1`, the values for the half-life at 500 µM in data set [1] and in data set [4] were 6.1 min and 1.6 min, respectively. In addition, the inhibition entry (in data set [2]; in data set [3]; in the data set with Vas deferens) was “Active” each time.

With `CC(COc1ccccc1)[N+]1(Cc2ccccc2)CC1.[O-][Cl+3]([O-])([O-])[O-]` (stereo not drawn), the inhibition result (in data set [2]; in data set [3]; in the data set on Vas deferens) was “Active” each time. For the same compound, in data set [5], the half-life at 0.003 M turned out to be 19 min.

`[O-][Cl+3]([O-])([O-])[O-].c1ccc(C[N+]2(Cc3ccccc3)CC2)cc1`: the inhibition entry (in data set [2]; in data set [3]; in the data set with Vas deferens) was “Active” each time. Also, the half-life at 0.003 M in data set [5] was 14 min.
